Measurements published in patent US20230088286A1, “USP7 INHIBITOR FOR USE IN THE TREATMENT OF CANCER” (ALMAC DISCOVERY LIMITED, priority 2020, published 2023).
Residues, ends and D or L forms follow the SMILES beside them. *: point of attachment. Cbz = O=C(OCc1ccccc1)*

Experiments:
[1] = tested on: primary human fibroblasts (HDF) in hypoxic chamber; experiment: sVEGF ELISA in primary fibroblasts under hypoxia; format: cell-based; details: 48 h
Source text: FIG. 9: USP7 inhibition decreases VEGF levels in fibroblasts under hypoxia.
In response to wounding and during tumour growth, activated fibroblasts secrete synthesizers and modifiers of the ECM but also soluble angiogenic growth factors such as VEGF. Although VEGF gene expression can be controlled by multiple transcription factors, its major regulator is hypoxia-inducible factor 1 (HIF-1). HIF-1 mediates activation of VEGF transcription in response to hypoxia in solid tumours and in various malignant cell lines.
To assess its potency in a functional assay, HDF were treated with vehicle or various concentrations of USP7 inhibitor ADC-159 and incubated for 48 hours in hypoxic chamber. Cell culture supernatants were collected, and secreted VEGF was measured by ELISA.
(§1) For the co-culture experiments, 5×10^4 cancer cells were seeded in transwell in 0.5 mL complete growth medium and placed on the top of 0.1×10^6 fibroblasts plated in 12-well in 1 mL low serum growth media overnight. Following day cancer cells were washed with PBS and media replaced with reduced (1%) serum growth media. 0.5×10^6 PBMC were plated on top of fibroblasts, incubated for 45 min and activated with CD3 (1 μg/ml final concentration) and CD28 (5 μg/ml final concentration). […] Monoculture experiments, 0.1×10^6 cells were seeded in 12-well in 1 mL of complete growth media (cancer cells) or low serum growth media (fibroblasts) and incubated overnight. […] Afterwards, cell culture media was collected, cell debris were removed by centrifugation the concentration of VEGF in the cell culture supernatants was measured using the human/mouse VEGF immunoassay Quantikine ELISA kit (R&D systems, Minneapolis, Minn., USA) according to the manufacturer's instructions. For the intracellular VEGF detection, total protein concentration was determined by BCA (Pierce Chemical, USA) and VEGF levels determined using the same kit described above.

HIF-1α = experiment: Ubiquitination assay, TUBE pull-down of polyubiquitinated HIF-1α; format: cell-based, human; details: HDF, hypoxia; AD-04 1 μM, MG132 10 μM, 1 hour
Description: Given HIF-1α stability is known to be regulated at the protein level by ubiquitination, we investigated whether USP7 inhibition modulates HIF-1α polyubiquitination. […] Cells were harvested, lysed and polyubiquitinated proteins pulled down using two types of Tetra Ubiquitin Binding Entities (TUBES); with equal affinity for K48/K63 or 10 times more affinity for […]. Samples were analysed by immuno-blot using a HIF-1α antibody. […] These findings indicate that USP7 inhibition results in K48 polyubiquitination of HIF-1α and consequently, its proteasomal-mediated degradation.
Cells were lysed in a buffer containing 50 mM Tris-HCl, pH 7.5, 150 mM NaCl, 1 mM EDTA, 1% NP-40, 10% Glycerol, 50 mM NaF, 5 mM sodium pyrophosphate, 10 mM glycerol phosphate, 1 mM sodium orthovanadate, protease and phosphatase inhibitor tablet and 50 uM PR-619. Lysates were pre-cleared by centrifugation at 4° C. for 15 mins at 16,000× g and protein concentration determined using BCA method. 20 ul of samples was taken as input. Pre-cleared supernatant containing 0.5 mg of total protein was added to 20 ul equilibrated Agarose-TUBE 1 or TUBE 2 beads (Life Sensors) and incubated for 2 hours at 4° C. on a rocker platform. Beads were collected by low speed centrifugation (1000-5000× g, 4° C.) for 5 minutes and supernatant taken as FT. Beads were washed twice with 1 ml TBS-T (20 mM Tris-HCl, pH 8.0, 0.15M NaCl, 0.1% Tween-20) and collected by low speed centrifugation. Finally, beads were resuspended in 30 ul of SDS reducing sample buffer and boiled for 10 min at 95° C.

[2] = tested on: activated primary fibroblasts WI38, IMR90 and HDF; experiment: sVEGF ELISA in activated primary fibroblasts; format: cell-based, human; details: cancer cells, immortalized fibroblasts and FGF-2 activated primary fibroblasts, normoxia or hypoxia, 48 hours
Source text: FIG. 5: USP7 inhibition decreased secreted VEGF levels in activated fibroblasts. The USP7-mediated decrease in VEGF secretion observed in the co-cultures can be solely attributed to modulation of secreted VEGF in primary fibroblasts.
(FIG. 4). […] During the wound healing process or following stimulation by acute or chronic inflammatory signals, fibroblasts acquire an activated phenotype (referred to as myofibroblasts). Once activated, myofibroblasts proliferate and migrate, show contractile activity, exert physical forces to modify tissue architecture and become transcriptionally active leading to the secretion of cytokines, chemokines and extra-cellular matrix (ECM) components. In the tumour microenvironment, the majority of residual fibroblasts become activated and are known as cancer associated fibroblasts (CAF). In order to generate a myofibroblast phenotype, WI38, IMR90 and HDF were co-cultured with anti-CD3/anti-CD28 stimulated PBMCs or were stimulated by FGF-2 or TGFβ. […] The USP7 inhibitor-mediated decrease in VEGF secretion was only observed in primary fibroblasts; immortalized lung fibroblasts (WI38-VA13) were insensitive to USP7 inhibitor treatment, probably due to the destabilized p53 in the SV-40 immortalized fibroblasts (FIG. 7).
as §1

[3] = tested on: CT-26 cells in BALB/C mice; experiment: CT-26 syngeneic tumour model (AD-04 study)
Description: FIG. 30: Effect of USP7 on the tumour microenvironment in vivo.
For subcutaneous tumour implantation, CT26 cells were injected subcutaneously (1×10^6cells in 200 μL of RPMI) in the right flank of 8- to 10-week-old BALB/c female mice. […] Tumour volume (in mm^3) was measured twice a week with a digital caliper and calculated by the following formula: volume=(width)^2×length/2. Body weight was measured twice a week. […]

MMP-7 = MMP-7 in supernatants of HDF invasion assay (Luminex); format: cell-based, human; details: invading HDF, 96 hours
Description: The scratch wound cell invasion assay was used to measure the ability of primary human fibroblasts to invade through Matrigel® basement membrane. Cell culture supernatants from invasion assay were collected after 96 hours and MMP-7 levels were measured using Luminex®.
To further explore whether USP7 inhibition modulates MMP levels in invading fibroblasts, cell culture supernatants from HDF invasion assay were collected and presence of various MMP was detected using Luminex® Multiplex assay.
(§2) Concentrations of MMP2 and MMP7 were determined in cell culture supernatants in triplicates using Luminex human cytokine/chemokine multiplex kits (Millipore, St. Charles, Mo., USA) according to the manufacturer's protocol.

MMP-2 = MMP-2 in supernatants of HDF and HUVEC co-culture (Luminex); format: cell-based, human; details: supernatants after 14 days
Description: Cell culture supernatants from tube formation were collected and MMP-2 levels were measured using Luminex®.
Next, the underlying mechanism of tube formation inhibition was investigated. […] To determine whether secretion of MMP-2 is modulated by USP7 inhibition, supernatants from HUVEC and HDF co-cultures were collected after 14 days.
as §2

## O=C(c1cnc(C2CC2)o1)N1CCC(O)(Cn2cnc3c(cc(Cl)n3-c3ccc4c(c3)CCO4)c2=O)CC1 [ADC-160, 6-Chloro-3-((1-(2-cyclopropyloxazole-5-carbonyl)-4-hydroxypiperidin-4-yl)methyl)-7-(2,3-dihydrobenzofuran-5-yl)-3,7-dihydro-4H-pyrrolo[2,3-d]pyrimidin-4-One]
[1]
  VEGF secretion under hypoxia: Comparable results

## CC1(C(=O)N2CCC(O)(Cn3cnc4c(cc(Cl)n4-c4ccc5c(c4)OCC5)c3=O)CC2)CC1 [ADC-198, 6-Chloro-7-(2,3-dihydrobenzofuran-6-yl)-3-[[4-hydroxy-1-(1-methylcyclopropanecarbonyl)-4-piperidyl]methyl]pyrrolo[2,3-d]pyrimidin-4-One]
[1]
  VEGF secretion under hypoxia: Comparable results

## O=C(c1cnc(C2CC2)o1)N1CCC(O)(Cn2cnc3c(cc(Cl)n3-c3ccc4c(c3)OCC4)c2=O)CC1 [ADC-199, 6-Chloro-3-((1-(2-cyclopropyloxazole-5-carbonyl)-4-hydroxypiperidin-4-yl)methyl)-7-(2,3-dihydrobenzofuran-6-yl)-3,7-dihydro-4H-pyrrolo[2,3-d]pyrimidin-4-One]
[1]
  VEGF secretion under hypoxia: Comparable results

## CC1(C(=O)N2CCC(O)(Cn3cnc4c(cc(Cl)n4-c4ccc5c(c4)OCO5)c3=O)CC2)CC1 [ADC-556, 7-(Benzo[d][1,3]dioxol-5-yl)-6-chloro-3-((4-hydroxy-1-(1-methylcyclopropane-1-carbonyl)piperidin-4-yl)methyl)-3,7-dihydro-4H-pyrrolo[2,3-d]pyrimidin-4-One]
[1]
  VEGF secretion under hypoxia: Comparable results

## CC(C)C[C@@H](C=O)NC(=O)[C@H](CC(C)C)NC(=O)[C@H](CC(C)C)NC(=O)OCc1ccccc1 [MG132, reference compound] (Cbz-Leu-Leu-Leu-aldehyde)
HIF-1α
  K63/K48 polyubiquitinated HIF-1α: increased polyubiquitination

## COc1ccc(C2=N[C@@H](c3ccc(Cl)cc3)[C@@H](c3ccc(Cl)cc3)N2C(=O)N2CCNC(=O)C2)c(OC(C)C)c1 [Nutlin-3a]
[2]
  secretion of VEGF (benchmark against MDM2 antagonists): not able to modulate

## CCOc1cc(C(C)(C)C)ccc1C1=N[C@@](C)(c2ccc(Cl)cc2)[C@@](C)(c2ccc(Cl)cc2)N1C(=O)N1CCN(CCCS(C)(=O)=O)CC1 [RG7112]
[2]
  secretion of VEGF (benchmark against MDM2 antagonists): not able to modulate

## CC(C)(C)C[C@@H]1N[C@@H](C(=O)N[C@H]2CC[C@H](O)CC2)[C@H](c2cccc(Cl)c2F)[C@]12C(=O)Nc1cc(Cl)ccc12 [SAR405838]
[2]
  secretion of VEGF (benchmark against MDM2 antagonists): not able to modulate

## CNC(=O)c1cc(Oc2ccc(NC(=O)Nc3ccc(Cl)c(C(F)(F)F)c3)cc2)ccn1 [Sorafenib, reference compound]
[3]; highest AD-04 dose (subcutaneous infusion), Sorafenib oral positive control, day 15 post tumour implantation
  tumour growth inhibition: 58%
[3]; mouse, in vivo
  tolerability, bodyweight of tumour-bearing mice: no significant bodyweight loss

## Avastin: anti-VEGF monoclonal antibody bevacizumab [reference compound]
MMP-7
  MMP-7 levels: did not have significant effect
MMP-2
  MMP-2 levels: did not have significant impact
